{
  "source": "patent US20110098257A1",
  "about": "“DERIVATIVES OF 4- OR 5-AMINOSALICYLIC ACID” (ANTIBE THERAPEUTICS INC., priority 2005, published 2011)",
  "key": {"IL-10 mRNA": {"tested_on": "IL-10 mRNA", "assay": "Colonic mRNA expression by RT-PCR in TNBS-induced colitis", "assay_type": "in vivo, mice", "details": "dose equimolar to mesalamine 50 mg/kg; normalized to GAPDH, ratio to healthy controls", "procedure": "The same model was used as described above. In this example, the effects of mesalamine (50 mg/kg) were compared to those of equimolar doses of Compound XXXV. In addition to measuring the severity of colitis by measuring disease activity score and MPO activity, tissues were processed for measurement of a number of genes for inflammatory cytokines and other mediators.\nIn particular, mRNA expression in mice of tumour necrosis factor-alpha (TNF-α), interferon gamma (IFN-[…]γ), colonic interleukin (IL)-1, IL-2, IL-10, IL-12 p40, RANTES, cyclooxygenase (COX)-1, COX-2, constitutive endothelial nitric oxide synthase (eNOS), and inducible NOS (iNOS) was measured as described in Wallace et al. (1999) Gastroenterology 117: 557-566, incorporated herein by reference.\nBriefly, reverse transcription-polymerase chain reaction (RT-PCR) was used to detect and quantify mRNA of the particular cytokine/chemokine/enzyme. Glyceraldehyde-3-phosphate dehydrogenase (GAPDH) was used as the “housekeeping gene” for mRNA expression (i.e., as an internal control). For each sample, the ratio of the amplification of the target gene to the amplification of GAPDH (expression of each is measured by performing densitometry on gels) was obtained. Comparisons were then made between the relative amplification (expression) of the target gene in tissues for the treatment groups in comparison to the expression in tissues from healthy controls. Thus, the data shown in FIGS. 7-14 represent the relative expression of the target gene (normalized to GAPDH expression) as a ratio to the expression in healthy controls."}, "[1]": {"tested_on": "visceral pain in response to colorectal distension", "assay": "Rat model of visceral pain perception (colorectal distension, AWR score)", "assay_type": "in vivo, Rats (male, Wistar)", "procedure": "A rat model of visceral pain perception, a pre-clinical model of irritable bowel syndrome, was used in the following example. Rats (male, Wistar, 200-250 g, obtained from Charles River, Monza, Italy), were housed in plastic cages and maintained under controlled conditions with 12-hours light/dark cycle with lights on at 7.00 AM. Tap water and standard laboratory chow were freely available. Before experiments, rats were individually trained by spending 2-3 hours per day in a plexiglass cage for 2-3 days. It allowed them to adjust to a movement-restriction environment. Food was withheld for 12 hours before colorectal distension (CRD) recording were performed. Experiments were performed in awake rats and were conducted in a blind manner in that the observer was not aware of the identity of drug administered to each animal.\nIn the testing day, rats were sedated with ether inhalation and a 2 cm long latex balloon was inserted intrarectally 2 cm from the anal verge and fixed at the base of the tail. The balloon was connected via a double-barreled cannula to a pressure transducer to continuously monitoring the rectal pressure by a computer (PowerLab PC, A.D. Instruments, Milford, Mass., USA) and to a syringe for inflation/deflation of the balloon. The rats were then housed in a small cage (20×8×8 cm) on an elevated Plexiglas™ platform and allowed to wake up and adapt for 1 hour. After recovery from sedation, animals underwent the CRD procedure and behavioral responses were tested. The night before the experiments, the balloons were inflated and left overnight so the latex stretched and the balloons became compliant.\nCRD of 20 seconds, performed every 5 minutes, was applied in increment of 0.4 ml starting from 0.4 ml up to 1.6 ml water. To achieve an accurate measurement of the colonic parameters and perception, the distensions were repeated twice for each intensity and data for each animal were averaged for analysis. Each animal underwent a double set of CRD. Twenty minutes after the first sequence of CRD (0.4 mL-1.6 ml water), drugs were administered intraperitoneally (i.p.) and a second set of CRD was performed. Behavioral responses during the first and the second set of CRD were assessed and compared.\nBehavioral response to CRD was assessed by measuring the abdominal withdrawal reflex (AWR) using a semiquantitative score (1).\nThe effects of mesalamine and Compound XXXV on colonic compliance and sensitivity were determined using a total of 8 fasting rats. To investigate whether the administration of mesalamine and Compound XXXV could revert pain induced by CRD, after the first sequence of CRD, […], after which a second set of CRD was repeated.\nTo determine the effect of mesalamine or Compound XXXV on colonic smooth muscle, the compliance of the colo-rectum during CRD was obtained from intracolo-rectal volume and pressure and expressed as mL/mmHg.\nAll data are presented as the mean±SEM, with sample sizes of 4 rats/group; statistical comparison of paired data was performed by the Wilcoxon signed rank test. An associated probability (p value) of less that 5% was considered significant.\nA rat model of visceral pain perception as described above was used to compare pain perception scores for both Compound XXXV and Compound XXVII with or without glibenclamide, an inhibitor of ATP-sensitive K^+ (KATP) channels."}},
  "data": [
    {"smiles": "Nc1ccc(O)c(C(=O)Oc2ccc(-c3cc(=S)ss3)cc2)c1", "note": "[Compound XXXV, 5-Amino-2-hydroxy-benzoic acid 4-(5-thioxo-5H-[1,2]dithiol-3-yl)-phenyl ester]", "values": [
      {"measurement": "expression of IL-10 mRNA", "setting": "IL-10 mRNA", "result": "did not suppress expression of IL-10 mRNA"},
      {"measurement": "intrarectal pressure", "setting": "[1]; 100 mg/kg i.p., FIG. 16(b)", "result": "successfully reduced intrarectal pressure"},
      {"measurement": "perception score (visceral pain in response to colorectal distension)", "setting": "[1]; 100 mg/kg i.p., second set of CRD vs first, FIG. 15", "result": "more effective than mesalamine (and vehicle) in reducing visceral pain"},
      {"measurement": "pain perception score after glibenclamide pretreatment", "setting": "[1]; 0.8 mL colorectal distention, 100 mg/kg, glibenclamide 10 mg/kg i.p. 30 min before, FIG. 17", "result": "reversed by pretreatment with glibenclamide"},
      {"measurement": "pain perception score", "setting": "[1]; 0.8 mL colorectal distention, 100 mg/kg, vs vehicle-treated group, FIG. 17", "result": "significantly reduced the pain perception"},
      {"measurement": "pain perception", "setting": "[1]; equimolar doses: mesalamine 50, Compound XXXV 130, ADT-OH 80, Compound XXVII 100, 4-HTB 50 mg/kg, vs vehicle-treated group", "result": "significantly reduced pain perception"}
    ]}
  ]
}
